Read-outs that look alike come from different tables or passages of the source. Marks after values point to notes of the source that are not given here.

Holding throughout (assay type): in vivo
Assay [1] concerns Phytophthora infestans (the causal agent of tomato late blight). The conditions noted are these: sprayed the day before inoculation, 100 = 100% disease control, 0 = no control.
The test system is the same in assay [2]. Conditions: sprayed 17 h after inoculation, 100 = 100% disease control, 0 = no control.
Assay [3] relates to Plasmopara viticola (the causal agent of grape downy mildew). Put plainly: Test A: grape downy mildew, grape seedlings inoculated then sprayed with test suspension, visual disease rating. Conditions: 100 = 100% disease control, 0 = no control relative to controls. The text has this: General protocol for preparing test suspensions for Tests A-B2: The test compounds were first dissolved in acetone in an amount equal to 3% of the final volume and then suspended at the desired concentration (in ppm) in acetone and purified water (50/50 mix by volume) containing 250 ppm of the surfactant Trem® 014 (polyhydric alcohol esters). The resulting test suspensions were then used in Tests A-B2. Spraying a 200 ppm test suspension to the point of run-off on the test plants was the equivalent of a rate of 800 g/ha.
Grape seedlings were inoculated with a spore suspension of Plasmopara viticola (the causal agent of grape downy mildew) and incubated in a saturated atmosphere at 20° C. for 24 h. After a short drying period, the grape seedlings were sprayed with the test suspension to the point of run-off, then moved to a growth chamber at 20° C. for 5 days, and then back into a saturated atmosphere at 20° C. for 24 h. Upon removal, visual disease ratings were made.
Results for Tests A-B2 are given in Table A. In the Table, a rating of 100 indicates 100% disease control and a rating of 0 indicates no disease control (relative to the controls). All results are for 10 ppm except where followed by an “*” which indicates 40 ppm and “**” which indicates 200 ppm.

Setting [4] is: test suspension 10 ppm, listed as 2.

In the case of `CCC=NOCC(=O)N1CCC(c2nc(C3=NOC(c4c(F)cccc4F)C3)cs2)CC1` (racemic) [compound 30], the “Test B1 rating (disease control)” value in assay [1] (test suspension 40 ppm (*)) is listed as 100* %. The “Test B2 rating (disease control)” value in assay [2] (test suspension 40 ppm (*)) is listed as 99* %. Moreover, the “Test A rating (disease control)” value in assay [3] (test suspension 40 ppm (*)) is 100* %.
For `CC(=NOCC(=O)N1CCC(c2nc(C3=NOC(n4c(=O)n(C)c5ccccc54)C3)cs2)CC1)C(F)(F)F` (stereo not drawn) [compound 49], in assay [1] (test suspension 10 ppm), the “Test B1 rating (disease control)” value is recorded as 100%. Besides, the “Test B2 rating (disease control)” value in assay [2] (test suspension 10 ppm) turned out to be 99%. Moreover, the “Test A rating (disease control)” value in assay [3] (test suspension 10 ppm) is reported as 100%.
For the compound `CC(=NOCC(=O)N1CCC(c2nc(C3=NOC4(C3)c3ccccc3C(=O)N4C)cs2)CC1)C(F)(F)F` (stereo not drawn) [compound 50], in assay [1] (test suspension 10 ppm), the “Test B1 rating (disease control)” value is reported as 100%. For the same compound, the “Test B2 rating (disease control)” value in assay [2] (test suspension 10 ppm) amounted to 99%. Moreover, the “Test A rating (disease control)” value in assay [3] (test suspension 10 ppm) was found to be 100%.
On to `CC(=NOCC(=O)N1CCC(c2nc(C3=NOC(c4c(F)cccc4F)C3)cs2)CC1)C(F)(F)F` (racemic) [Compound 4], for which, in assay [1] (test suspension 10 ppm), the “Test B1 rating (disease control)” value stood at 100%. In addition, in assay [2] (test suspension 10 ppm), the “Test B2 rating (disease control)” value is reported as 99%. Moreover, the “Test A rating (disease control)” value in assay [3] (test suspension 10 ppm) is 100%.
`CC(C)CC=NOCC(=O)N1CCC(c2nc(C3=NOC(c4c(F)cccc4F)C3)cs2)CC1` (racemic) [compound 28]: the “Test B1 rating (disease control)” value in assay [1] (test suspension 40 ppm (*)) was 95* %. Moreover, the “Test B2 rating (disease control)” value in assay [2] (test suspension 40 ppm (*)) was 68* %. In addition, the “Test A rating (disease control)” value in assay [3] (test suspension 40 ppm (*)) is listed as 98* %.
For `C[C@H](c1ccccc1)N(C)C(=O)c1csc(C2CCN(C(=O)CON=CC(F)(F)F)CC2)n1` [Compound 31, N-methyl-N-[(1R)-1-phenylethyl]-2-[1-[2-[[(2,2,2-trifluoroethylidene)amino]oxy]acetyl]-4-piperidinyl]-4-thiazolecarboxamide], in that order: 100* %, 99* % and 100* %.
In the case of “1-[4-[4-[5-(2,6-difluorophenyl)-4,5-dihydro-3-isoxazolyl]-2-thiazolyl]-1-piperidinyl]-2-(4,5-dihydro-3,5-dimethyl-1H-pyrazol-1-yl]ethanone [Compound 40]”, the “Test B1 rating (disease control)” value in assay [1] (test suspension 10 ppm) came to 100%. For the same compound, in assay [2] (test suspension 10 ppm), the “Test B2 rating (disease control)” value was found to be 98%. Also, in assay [3] (test suspension 10 ppm), the “Test A rating (disease control)” value turned out to be 100%.
On to `CCCC=NOCC(=O)N1CCC(c2nc(C3=NOC(c4c(F)cccc4F)C3)cs2)CC1` (racemic) [compound 10], for which the “Test B1 rating (disease control)” value in assay [1] (test suspension 10 ppm) worked out at 95%. In assay [2] (test suspension 10 ppm), the “Test B2 rating (disease control)” value was found to be 88%. In addition, the “Test A rating (disease control)” value in assay [3] (test suspension 10 ppm) was found to be 98%.
Consider `O=C(CON=C1CCCC1)N1CCC(c2nc(C3=NOC(c4c(F)cccc4F)C3)cs2)CC1` (stereo not drawn) [Compound 5], for which the “Test B1 rating (disease control)” value in assay [1] (test suspension 10 ppm) is reported as 95%; in assay [1] (setting [4]) it was 100%. Besides, the results for the “Test B2 rating (disease control)” value in assay [2] (test suspension 10 ppm) and in assay [2] (setting [4]) were 98% and 100%, respectively. Further, the “Test A rating (disease control)” value in assay [3] (test suspension 10 ppm) is 95%; in assay [3] (setting [4]) it was 100%.
Regarding `CC(C)=NOC(C(=O)N1CCC(c2nc(C3=NOC(c4c(F)cccc4F)C3)cs2)CC1)c1ccccc1` (mixture of isomers) [compound 32], the “Test B1 rating (disease control)” value in assay [1] (test suspension 40 ppm (*)) is listed as 100* %. Also, in assay [2] (test suspension 40 ppm (*)), the “Test B2 rating (disease control)” value is recorded as 92* %. For the same compound, the “Test A rating (disease control)” value in assay [3] (test suspension 40 ppm (*)) is reported as 94* %.
`O=C(CON=CC(F)(F)F)N1CCC(c2nc(C3=NOC4(CCc5ccccc54)C3)cs2)CC1` (stereo not drawn) [compound 29]: in assay [1] (test suspension 10 ppm), the “Test B1 rating (disease control)” value worked out at 100%. In addition, the “Test B2 rating (disease control)” value in assay [2] (test suspension 10 ppm) is 99%. For the same compound, the “Test A rating (disease control)” value in assay [3] (test suspension 10 ppm) was found to be 100%.
As to `CC1=NN(CC(=O)N2CCC(c3nc(C4=NOC(c5c(F)cccc5F)C4)cs3)CC2)C(C)(C)C1` (stereo not drawn) [compound 46], the “Test B1 rating (disease control)” value in assay [1] (test suspension 40 ppm (*)) is reported as 90* %. Moreover, the “Test B2 rating (disease control)” value in assay [2] (test suspension 40 ppm (*)) is reported as 81* %. For the same compound, the “Test A rating (disease control)” value in assay [3] (test suspension 40 ppm (*)) is listed as 9* %.
`CN1C(=O)c2ccccc2C12CC(c1csc(C3CCN(C(=O)CON=CC(F)(F)F)CC3)n1)=NO2` (stereo not drawn) [compound 47]: the “Test B1 rating (disease control)” value in assay [1] (test suspension 10 ppm) came to 100%. Moreover, in assay [2] (test suspension 10 ppm), the “Test B2 rating (disease control)” value is on record as 99%. In assay [3] (test suspension 10 ppm), the “Test A rating (disease control)” value was determined as 100%.
On to `O=C(CCNC(=O)C(F)(F)F)N1CCC(c2nc(C3=NOC(c4c(F)cccc4F)C3)cs2)CC1` (racemic) [compound 34], for which the “Test B1 rating (disease control)” value in assay [1] (test suspension 200 ppm (**)) is 97** %. Moreover, in assay [2] (test suspension 200 ppm (**)), the “Test B2 rating (disease control)” value is 40** %. Further, in assay [3] (test suspension 200 ppm (**)), the “Test A rating (disease control)” value is 33** %.
With `CC(=NOCC(=O)N1CCC(c2nc(C3=NOC(n4c(=O)oc5ccccc54)C3)cs2)CC1)C(F)(F)F` (stereo not drawn) [compound 43], in assay [1] (test suspension 10 ppm), the “Test B1 rating (disease control)” value is on record as 100%. For the same compound, the “Test B2 rating (disease control)” value in assay [2] (test suspension 10 ppm) was 99%. The “Test A rating (disease control)” value in assay [3] (test suspension 10 ppm) is given as 100%.

For the origin of these results see US8618137B2 (priority 2008, dated 2013).
